Patent publication US8471005B2 (Cephalon, Inc., priority 2008, dated 2013)

What was measured:
ALK = molecular target: T1, ALK (Homo sapiens, UniProt Q9UM73); assay: ALK Kinase Assay (ELISA/TRF, PLC-γ substrate); assay type: biochemical; conditions: ALK kinase inhibition, 1 μM ATP; read-out: ALK Potency
T1 construct: host or cells: baculovirus expression system
How it was run: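 PLC-γ coat 10 μg/mL in TBS; ALK 30 ng/ml added to start; 37° C, 15 min; Eu-N1 PT66 antibody detection (TRF). IC50: % inhibition vs log10 [cpd], variable-slope sigmoidal fit.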

JAK2 = molecular target: T2, JAK2 (Homo sapiens, UniProt O60674); assay: Recombinant Human JAK2 Kinase Assay (TRF); assay type: biochemical; conditions: JAK2 kinase inhibition, 0.2 μM ATP; read-out: JAK2 Potency
T2 construct: host or cells: baculovirus expression system
How it was run: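 TRF read-out: Eu-N1 PY100 anti-phosphotyrosine antibody detects product. Enzyme is baculovirus-expressed JAK2 at 15 ng/ml; substrate is a biotinyl 15-mer peptide bound to Neutravidin-coated wells. Buffer 20 mM HEPES pH 7.2, 0.2 μM ATP, 1 mM MnCl2, 0.1% BSA, 2.5% DMSO final; 20 min, RT.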

T1 sequence (Q9UM73 19-1620): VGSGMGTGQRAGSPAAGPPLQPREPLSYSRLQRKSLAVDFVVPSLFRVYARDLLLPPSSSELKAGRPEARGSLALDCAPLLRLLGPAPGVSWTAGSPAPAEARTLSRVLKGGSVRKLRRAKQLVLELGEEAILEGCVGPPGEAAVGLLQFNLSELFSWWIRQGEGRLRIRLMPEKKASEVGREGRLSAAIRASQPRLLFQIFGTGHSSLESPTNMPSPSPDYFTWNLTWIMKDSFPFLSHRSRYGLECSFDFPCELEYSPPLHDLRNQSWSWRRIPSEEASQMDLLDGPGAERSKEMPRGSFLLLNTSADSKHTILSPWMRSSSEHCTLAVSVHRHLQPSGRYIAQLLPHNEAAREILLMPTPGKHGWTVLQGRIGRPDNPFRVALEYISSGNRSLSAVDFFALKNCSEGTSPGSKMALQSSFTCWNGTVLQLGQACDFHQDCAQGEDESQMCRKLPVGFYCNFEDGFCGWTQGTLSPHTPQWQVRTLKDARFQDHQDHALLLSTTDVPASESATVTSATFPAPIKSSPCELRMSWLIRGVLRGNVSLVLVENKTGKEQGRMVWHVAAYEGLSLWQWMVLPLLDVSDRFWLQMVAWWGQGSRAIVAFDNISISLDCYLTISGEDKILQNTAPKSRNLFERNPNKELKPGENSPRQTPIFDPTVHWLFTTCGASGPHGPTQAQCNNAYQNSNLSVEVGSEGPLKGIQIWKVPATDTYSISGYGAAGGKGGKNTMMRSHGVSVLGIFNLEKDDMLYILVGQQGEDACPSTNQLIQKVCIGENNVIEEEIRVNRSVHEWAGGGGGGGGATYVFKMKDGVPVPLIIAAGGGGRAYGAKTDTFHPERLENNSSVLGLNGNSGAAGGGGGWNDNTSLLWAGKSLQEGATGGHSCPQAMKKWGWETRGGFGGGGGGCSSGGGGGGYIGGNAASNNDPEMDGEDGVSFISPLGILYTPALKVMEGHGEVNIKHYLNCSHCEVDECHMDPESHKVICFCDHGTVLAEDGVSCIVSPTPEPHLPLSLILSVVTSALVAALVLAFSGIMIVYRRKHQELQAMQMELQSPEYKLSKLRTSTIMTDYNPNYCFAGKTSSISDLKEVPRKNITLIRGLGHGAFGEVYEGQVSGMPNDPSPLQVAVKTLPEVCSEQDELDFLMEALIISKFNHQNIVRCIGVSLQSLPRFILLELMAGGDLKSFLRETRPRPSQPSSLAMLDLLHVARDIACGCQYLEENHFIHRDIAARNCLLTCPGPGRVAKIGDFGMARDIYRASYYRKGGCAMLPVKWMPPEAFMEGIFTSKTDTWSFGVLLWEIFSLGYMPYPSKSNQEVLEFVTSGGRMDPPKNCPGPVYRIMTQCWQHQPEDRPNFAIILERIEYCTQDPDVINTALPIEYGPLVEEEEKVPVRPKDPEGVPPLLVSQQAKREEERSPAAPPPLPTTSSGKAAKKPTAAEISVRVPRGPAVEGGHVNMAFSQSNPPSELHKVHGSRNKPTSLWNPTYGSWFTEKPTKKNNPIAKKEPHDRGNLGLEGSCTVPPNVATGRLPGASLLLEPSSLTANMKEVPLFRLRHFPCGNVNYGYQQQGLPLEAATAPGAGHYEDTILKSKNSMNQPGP
T2 sequence (O60674 whole entry): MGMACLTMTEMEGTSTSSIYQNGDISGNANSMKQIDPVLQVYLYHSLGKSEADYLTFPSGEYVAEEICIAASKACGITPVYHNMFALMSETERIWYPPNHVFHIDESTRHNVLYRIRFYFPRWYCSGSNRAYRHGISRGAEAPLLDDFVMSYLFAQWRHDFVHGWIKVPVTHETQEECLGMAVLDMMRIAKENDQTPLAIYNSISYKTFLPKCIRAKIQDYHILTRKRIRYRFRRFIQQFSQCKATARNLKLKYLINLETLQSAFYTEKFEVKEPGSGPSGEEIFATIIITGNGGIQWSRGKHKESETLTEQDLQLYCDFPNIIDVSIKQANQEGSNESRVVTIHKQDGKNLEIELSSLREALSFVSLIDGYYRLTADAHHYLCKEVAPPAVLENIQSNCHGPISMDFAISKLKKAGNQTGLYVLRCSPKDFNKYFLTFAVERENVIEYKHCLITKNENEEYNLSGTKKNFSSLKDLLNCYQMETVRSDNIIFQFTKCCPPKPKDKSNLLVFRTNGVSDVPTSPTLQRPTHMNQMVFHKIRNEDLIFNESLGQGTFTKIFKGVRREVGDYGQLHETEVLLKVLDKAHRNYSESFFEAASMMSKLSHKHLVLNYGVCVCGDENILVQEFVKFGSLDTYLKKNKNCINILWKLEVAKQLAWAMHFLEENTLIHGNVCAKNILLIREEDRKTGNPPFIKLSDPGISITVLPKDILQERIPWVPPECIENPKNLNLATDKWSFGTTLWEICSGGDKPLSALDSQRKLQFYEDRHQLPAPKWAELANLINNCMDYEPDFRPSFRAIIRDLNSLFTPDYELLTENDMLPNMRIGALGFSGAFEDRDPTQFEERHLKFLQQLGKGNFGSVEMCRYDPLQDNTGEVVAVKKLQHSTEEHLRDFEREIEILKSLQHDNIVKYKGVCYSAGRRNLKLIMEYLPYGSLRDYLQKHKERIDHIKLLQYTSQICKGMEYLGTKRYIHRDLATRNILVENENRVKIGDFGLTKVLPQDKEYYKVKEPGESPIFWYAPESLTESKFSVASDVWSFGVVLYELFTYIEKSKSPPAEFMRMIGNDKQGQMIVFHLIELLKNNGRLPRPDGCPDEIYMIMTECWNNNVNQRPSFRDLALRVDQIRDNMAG

| SMILES | IC50 (ALK) [nM] | IC50 (JAK2) [nM] |
| --- | --- | --- |
| C1=C(c2ccc3cnc(Nc4ccc(N5CCOCC5)cc4)nn23)CCSC1 [Example 613, [7-(3,6-Dihydro-2H-thiopyran-4-yl)-pyrrolo[2,1-f][1,2,4]triazin-2-yl]-(4-morpholin-4-yl-phenyl)-amine] | 1000 to 10000 | < 100 |
| COc1ccccc1-c1ccc2cnc(Nc3ccc4c(c3)CCC(N3CCOCC3)CC4)nn12 (centres unmarked) [Example 614, [7-(2-methoxy-phenyl)-pyrrolo[2,1-f][1,2,4]triazin-2-yl]-(7-morpholin-4-yl-6,7,8,9-tetrahydro-5H-benzocyclohepten-2-yl)amine] | < 100 | < 100 |
| CN(c1ccccc1-c1ccc2cnc(Nc3ccc4c(c3)CCC(N3CCOCC3)CC4)nn12)S(C)(=O)=O (centres unmarked) [Example 615, N-Methyl-N-{2-[2-(7-morpholin-4-yl-6,7,8,9-tetrahydro-5H-benzocyclohepten-2-ylamino)-pyrrolo[2,1-f][1,2,4]triazin-7-yl]-phenyl}-methanesulfonamide] | < 100 | < 100 |
| CN1CCOCc2cc(Nc3ncc4ccc(-c5ccccc5N(C)S(C)(=O)=O)n4n3)ccc21 [Example 616, N-Methyl-N-{2-[2-(1-methyl-1,2,3,5-tetrahydro-benzo[e][1,4]oxazepin-7-ylamino)-pyrrolo[2,1-f][1,2,4]triazin-7-yl]-phenyl}-methanesulfonamide] | 100 to 1000 | < 100 |
| CN1CCOCc2cc(Nc3ncc4ccc(-c5ccc(S(C)(=O)=O)cc5)n4n3)ccc21 [Example 617, [7-(4-Methanesulfonyl-phenyl)-pyrrolo[2,1-f][1,2,4]triazin-2-yl]-(1-methyl-1,2,3,5-tetrahydro-benzo[e][1,4]oxazepin-7-yl)-amine] | 1000 to 10000 | < 100 |
| COc1ccccc1-c1ccc2cnc(Nc3ccc4c(c3)COCCN4C)nn12 [Example 618, [7-(2-Methoxy-phenyl)-pyrrolo[2,1-f][1,2,4]triazin-2-yl]-(1-methyl-1,2,3,5-tetrahydro-benzo[e][1,4]oxazepin-7-yl)-amine] | 100 to 1000 | < 100 |
| CN1CCOCc2cc(Nc3ncc4ccc(-c5cccc(NS(C)(=O)=O)c5)n4n3)ccc21 [Example 619, N-{3-[2-(1-Methyl-1,2,3,5-tetrahydro-benzo[e][1,4]oxazepin-7-ylamino)-pyrrolo[2,1-f][1,2,4]triazin-7-yl]-phenyl}-methanesulfonamide] | 100 to 1000 | < 100 |
| CN1CCN(c2ccc(Nc3ncc4ccc(C5=CCC(S(C)(=O)=O)CC5)n4n3)cc2)CC1 (centres unmarked) [Example 620, [7-(4-Methanesulfonyl-cyclohex-1-enyl)-pyrrolo[2,1-f][1,2,4]triazin-2-yl]-[4-(4-methyl-piperazin-1-yl)-phenyl]-amine] | 100 to 1000 | < 100 |
| CN(c1ccccc1-c1ccc2cnc(Nc3ccc(Cn4ccnc4)cc3)nn12)S(C)(=O)=O [Example 621, N-{2-[2-(4-Imidazol-1-ylmethylphenylamino)-pyrrolo[2,1-f][1,2,4]triazin-7-yl]phenyl}-N-methyl-methanesulfonamide] | < 100 | < 100 |
| CN(c1ccccc1-c1ccc2cnc(-n3ccnc3)nn12)S(C)(=O)=O [Example 622, N-[2-(2-Imidazol-1-yl-pyrrolo[2,1-f][1,2,4]triazin-7-yl)-phenyl]-N-methyl-methanesulfonamide] | 1000 to 10000 | < 100 |
| CN(c1ccccc1-c1ccc2cnc(Nc3ccc4c(c3)CCCC(=O)N4)nn12)S(C)(=O)=O [Example 623, N-Methyl-N-{2-[2-(2-oxo-2,3,4,5-tetrahydro-1H-benzo[b]azepin-7-ylamino)-pyrrolo[2,1-f][1,2,4]triazin-7-yl]-phenyl}-methanesulfonamide] | < 100 | < 100 |
| CN(c1ccccc1-c1ccc2cnc(Nc3ccc(N4CCOCC4)cc3)nn12)S(C)(=O)=O [Example 626, N-Methyl-N-{2-[2-(4-morpholin-4-yl-phenylamino)pyrrolo[2,1-f][1,2,4]triazin-7-yl]phenyl}methanesulfonamide] | 100 to 1000 | < 100 |
| Cc1cc(Nc2ncc3ccc(-c4ccccc4N(C)S(C)(=O)=O)n3n2)cc2oc(=O)[nH]c12 [Example 628, N-Methyl-N-{2-[2-(4-methyl-2-oxo-2,3-dihydrobenzooxazol-6-ylamino)-pyrrolo[2,1-f][1,2,4]triazin-7-yl]phenyl}methanesulfonamide] | 100 to 1000 | < 100 |
| CC(=O)N1CCCCc2ccc(Nc3ncc4ccc(-c5ccccc5N(C)S(C)(=O)=O)n4n3)cc21 [Example 630, N-{2-[2-(1-Acetyl-2,3,4,5-tetrahydro-1H-benzo[b]azepin-8-ylamino)-pyrrolo[2,1-f][1,2,4]triazin-7-yl]phenyl}-N-methylmethanesulfonamide] | 1000 to 10000 | < 100 |
| COc1ccc(-c2ccc3cnc(Nc4ccc5c(c4)N(C(C)=O)CCCC5)nn23)cn1 [Example 631, 1-{8-[7-(6-Methoxy-pyridin-3-yl)-pyrrolo[2,1-f][1,2,4]triazin-2-ylamino]-2,3,4,5-tetrahydro-benzo[b]azepin-1-yl}ethanone] | > 10000 | < 100 |
| CN(c1ccccc1-c1ccc2cnc(Nc3ccc4c(c3)C(C)(C)C(=O)N4)nn12)S(C)(=O)=O [Example 632, N-{2-[2-(3,3-Dimethyl-2-oxo-2,3-dihydro-1H-indol-5-ylamino)-pyrrolo[2,1-f][1,2,4]triazin-7-yl]phenyl}N-methyl-methanesulfonamide] | < 100 | < 100 |
| CC(=O)N1CCCCc2ccc(Nc3ncc4ccc(-c5cccc(NS(C)(=O)=O)c5)n4n3)cc21 [Example 633, N-{3-[2-(1-Acetyl-2,3,4,5-tetrahydro-1H-benzo[b]azepin-8-ylamino)-pyrrolo[2,1-f][1,2,4]triazin-7-yl]-phenyl}methanesulfonamide] | 1000 to 10000 | < 100 |
| CN(c1ccccc1-c1ccc2cnc(OC3CCN(c4ccc(N)cc4)CC3)nn12)S(C)(=O)=O [Example 634, N-(2-{2-[1-(4-Amino-phenyl)-piperidin-4-yloxy]-pyrrolo[2,1-f][1,2,4]triazin-7-yl}-phenyl)-N-methyl-methanesulfonamide] | 1000 to 10000 | 100 to 1000 |
| CN(c1ccccc1-c1ccc2cnc(Nc3ccc(N4CCC(O)CC4)cc3)nn12)S(C)(=O)=O [Example 635, N-(2-{2-[4-(4-Hydroxy-piperidin-1-yl)-phenylamino]pyrrolo[2,1-f][1,2,4]triazin-7-yl}phenyl)-N-methylmethanesulfonamide] | 100 to 1000 | < 100 |
| CS(=O)(=O)Nc1cccc(-c2ccc3cnc(Nc4ccc(N5CCC(N6CCOCC6)CC5)cc4)nn23)c1 [Example 636, N-(3-{2-[4-(4-Morpholin-4-yl-piperidin-1-yl)-phenylamino]-pyrrolo[2,1-f][1,2,4]triazin-7-yl}-phenyl)-methanesulfonamide] | 100 to 1000 | < 100 |
| COc1ccc(-c2ccc3cnc(Nc4ccc5c(c4)COCCN5C)nn23)cn1 [Example 637, [7-(6-Methoxy-pyridin-3-yl)-pyrrolo[2,1-f][1,2,4]triazin-2-yl]-(1-methyl-1,2,3,5-tetrahydro-benzo[e][1,4]oxazepin-7-yl)-amine] | 1000 to 10000 | < 100 |
| CN1C(=O)COc2cc(Nc3ncc4ccc(-c5cccc(NS(C)(=O)=O)c5)n4n3)ccc21 [Example 638, N-{3-[2-(4-Methyl-3-oxo-3,4-dihydro-2H-benzo[1,4]oxazin-7-ylamino)-pyrrolo[2,1-f][1,2,4]triazin-7-yl]-phenyl}methanesulfonamide] | 100 to 1000 | < 100 |
| COc1ccccc1-c1ccc2cnc(Nc3ccc4c(c3)N(C(C)=O)CCCC4)nn12 [Example 639, 1-{8-[7-(2-Methoxyphenyl)-pyrrolo[2,1-f][1,2,4]triazin-2-ylamino]-2,3,4,5-tetrahydrobenzo[b]azepin-1-yl}ethanone] | 1000 to 10000 | < 100 |
| CN1C(=O)COc2cc(Nc3ncc4ccc(-c5ccccc5N(C)S(C)(=O)=O)n4n3)ccc21 [Example 640, N-Methyl-N-{2-[2-(4-methyl-3-oxo-3,4-dihydro-2H-benzo[1,4]oxazin-7-ylamino)-pyrrolo[2,1-f][1,2,4]triazin-7-yl]-phenyl}-methanesulfonamide] | 100 to 1000 | < 100 |
| CN1CCOc2ccc(Nc3ncc4ccc(-c5ccccc5N(C)S(C)(=O)=O)n4n3)cc21 [Example 641, N-Methyl-N-{2-[2-(4-methyl-3,4-dihydro-2H-benzo[1,4]oxazin-6-ylamino)-pyrrolo[2,1-f][1,2,4]triazin-7-yl]-phenyl}methanesulfonamide] | 100 to 1000 | < 100 |
| CN1CCOc2ccc(Nc3ncc4ccc(-c5cccnc5)n4n3)cc21 [Example 642, (4-Methyl-3,4-dihydro-2H-benzo[1,4]oxazin-6-yl)-(7-pyridin-3-yl-pyrrolo[2,1-f][1,2,4]triazin-2-yl)-amine] | 1000 to 10000 | < 100 |
| CN1CCOc2ccc(Nc3ncc4ccc(-c5cccc(NS(C)(=O)=O)c5)n4n3)cc21 [Example 643, N-{3-[2-(4-Methyl-3,4-dihydro-2H-benzo[1,4]oxazin-6-ylamino)-pyrrolo[2,1-f][1,2,4]triazin-7-yl]-phenyl}methanesulfonamide] | 100 to 1000 | < 100 |
| COc1ccc(-c2ccc3cnc(Nc4ccc5c(c4)N(C)CCO5)nn23)cn1 [Example 644, [7-(6-Methoxy-pyridin-3-yl)-pyrrolo[2,1-f][1,2,4]triazin-2-yl]-(4-methyl-3,4-dihydro-2H-benzo[1,4]oxazin-6-yl)-amine] | 1000 to 10000 | < 100 |
